Reference: US20200138764A1, “METHODS AND DEVICES FOR ACTIVATING ADIPOSE TISSUE” (The Procter & Gamble Company, priority 2018, published 2020)

Tests used:
fat tissue = assay: qPCR biomarker analysis of fat tissue, in vivo; parameters: species or system Mice (C57BJ/6); conditions: mouse fat tissue, SC injection twice a week over 3 weeks
Experimental: (§1) Mice (8-10 weeks old males C57BJ/6 strain) were obtained from a commercial vendor Charles River Laboratories. The animal study protocols were approved by the Institutional Animal Care and Use Committee, at the Procter & Gamble Company. Mice were acclimated to the facility for 14 days prior to initiating the study. From arrival, mice were housed in solid-bottom shoebox styled cages within room temperature of 22±2° C. with ad libitum access to water and regular rodent chow diet on a 12 h light/dark cycle. Mice were single housed and offered bedding and various enrichment options. The bedding and nesting material allowed the mice to thermoregulate to their desired level of comfort. Body weights were recorded at the beginning of the study, on each dosing day prior to dosing, and final weights were recorded at the end of the study. Overall food consumption, fecal output, and body appearance were monitored during cage side clinical observations but were not scientifically measured or tracked. During the dosing period, the animals were observed several times per day (for example, before and during injection, immediately to 30-min post injection, a few hours after injection, and end of work day).
Three groups of animals were treated with mirabegron (i.e. positive control) (n=4), placebo (n=2) and Formula III (n=6) on the left side while the right side received placebo in all three groups. The injection was performed using a 25-27-gauge ½-⅝″ length needle via a subcutaneous (SC) injection near or into the inguinal fat pad region of the lower abdomen. Dosing was done twice a week injections over 3 weeks. Necropsy was done at week 4. Test materials were administered at room temperature and in a neutral pH range. Three days after last dosing animals were euthanized with CO2 inhalation, inguinal fat pads were harvested, and tissues were processed for histology and biomarker analysis.
The qPCR biomarker analysis was conducted from flash frozen fat tissue from mouse study described above. First, RNA was manually extracted with RNAdvance Tissue kit (Agencourt). RNA was extracted from flash frozen fat tissue according to manufactuer's directions. For example, 5 mm steel beads were placed in the freezer for approximately 15-20 minutes. Next, Qiagen Buffer RLT was cooled to 4° C. for 20 minutes and placed in a 96 well 1.5 mL tube rack for sample transfer. Isopropanol was added to Agencourt wash buffer. 100 mL aliquots of 70% ethanol in water were prepared. The RNA Tissue beads were allowed to warm to 22° C. (˜30 minutes), and then the beads were shaken vigorously and intermittently for at least 15-20 minutes. 1 stainless steel bead was added to a 2 mL round bottom tube stored on dry ice. The tissue sample was then transferred to the 2 mL round bottom tube.
The tube rack was placed on wet ice. Then, the tubes were transferred from dry ice to the rack in wet ice and 350 μL of cold buffer RLT were added to the tubes. The beads were beaten at 30 Hz for 2 minutes. After bead beating, samples were centrifuged for 2 minutes. The supernatant was transferred into 96 well deep well isolation plate.
80 μL of RNATissue beads were combined with 320 μL of isopropanol to create a Bind Buffer. This solution was prepared fresh for each isolation with any unused solution discarded.
400 μL of Bind Buffer was added to the to RLT mixture and slowly mixed. The solution was incubated at room temperature for 10 minutes. Special care was taken to avoid the formation of bubbles while tip mixing.
The mixture was placed on a magnet (96 well plate—Agencourt SPRIPlate) for 6-10 minutes. After the solution became clear, the supernatant was removed from each tube while the tubes remained on the magnet and the solution was discarded.
The tubes were removed from the magnet and the pellets were washed with 800 μL of the Isopropanol Wash Buffer ten times. […]

adipocyte = assay: In vivo browning study in lean mice: Fat % by image analysis of H&E stained tissue; parameters: species or system Mice (C57BJ/6); conditions: mice, SC injection, Formula III one side and mirabegron other side; high and middle dosage merged; H&E images
Experimental: as §1
[…] The injection was performed using a 25-27-gauge ½-⅝″ length needle via a subcutaneous (SC) injection near or into the inguinal fat pad region of the lower abdomen. Dosing was done twice a week injections over 3 weeks. Necropsy was done at week 4. […]
Segments of adipocyte and inter-cellular regions in a stained image were identified by Python […] package. […] The threshold between adipocyte and inter-cellular regions in a converted image was detected by the Otsu filter function of the […]. The detected value was adjusted by multiplying 1.1.
The ratio of adipocyte in an image was calculated from the pixel number of the segments—Adipocyte Pixel was divided by Total Pixel.
The significance of the difference in Adipocyte Ratio between treatment and control groups was assessed by the Negative Binomial Generalized Linear Mixed-Effects Model using glmer.nb function of R lme4 package. […]

Compound: Nc1nc(CC(=O)Nc2ccc(CCNC[C@H](O)c3ccccc3)cc2)cs1 [Mirabegron, mirabegron]
- Average Fold vs Placebo: AdipoQ (fat tissue): 13.7
- Average Fold vs Placebo: Adrb3 (fat tissue): 16.3
- Average Fold vs Placebo: Cidea (fat tissue): 39.7
- Average Fold vs Placebo: Cox7a1 (fat tissue): 27.8
- Average Fold vs Placebo: Cox8b (fat tissue): 38.6
- Average Fold vs Placebo: Dio2 (fat tissue): 8.3
- Average Fold vs Placebo: Elovl3 (fat tissue): 19.1
- Average Fold vs Placebo: IL6 (fat tissue): 3.3
- Average Fold vs Placebo: Ppargc1 (fat tissue): 12.0
- Average Fold vs Placebo: Prdm16 (fat tissue): 5.0
- Average Fold vs Placebo: Tfap2a (fat tissue): 15.2
- Average Fold vs Placebo: UCP1 (fat tissue): 170.3
- Average Fat % (Adipocyte Pixel / Total Pixel) (adipocyte): 94.43%
